In patent US8013153B2, “Substituted pyrimidine kinase inhibitors” (Janssen Pharmaceutica, N.V., priority 2006, dated 2011):
Several values for one entry are separate records, joined by “and”; a condition that tells them apart may be missing. Equal values may be shown once.

Assays:
[1] = system: VEGF-induced angiogenesis; assay: Mouse Corneal Micropocket Assay; format: in vivo, C57BL/6J mice
Description: This method has been described in detail (see Kenyon B, Voest E E, Chen C C, Flynn E, Folkman J and D'Amato R J, A model of angiogenesis in the mouse cornea, Invest. Opthalmol. Vis. Sci., 1996, 37:1625-1632; and, LaMontagne K, Littlewood-E A, Schnell C, O'Reilly T, Wyder L, Sanchez T, Probst B, Butler J, Wood A, Liau G, Billy E, Theuer A, Hla T and Wood J, Antagonism of sphingosine-1-phosphate receptors by FTY720 inhibits angiogenesis and tumor vascularization, Cancer Res., 2006, 66:221-31) and is an in vivo functional assay that provides an important link between biochemical and cellular inhibition (i.e., VEGFR-2 autophosphorylation and VEGF-dependent migration) and functional biological end points (i.e., VEGF-induced angiogenesis in vivo).
Pellets containing the slow-release polymer Hydron® and sucralfate with 180 ng rHuVEGF165 were implanted into the cornea of female C57BL/6J mice. Daily oral treatment with either Compound 50 (10 mg/kg or 100 mg/kg) or vehicle (0.5% methylcellulose) was started 24 hours later. […] After sacrifice on day 6, the vascular response was quantified using a linear reticule through the slit lamp. Inhibition was determined by the formula: Inhibition=[(0.2)(π)(new blood vessel length)(clock hours of neovessels)]
The circumferential zone was measured as clock hours with a 360° reticule (where 30° of arc equals 1 clock hour). […]

[2] = system: A375 human skin melanoma; assay: In vivo inhibition of tumor growth, A375 model; parameters: species or system athymic nude mice
Description: (§1) Female Nu/Nu˜nuBR athymic nude mice (obtained from Charles River Laboratories), at the age of 5-6 weeks were feed water and an irradiated standard rodent diet ad libitum, and housed in specific pathogen-free conditions, according to the guidelines of the American Association for Accreditation of Lab Animal Care (AALAC).
Mice were implanted subcutaneously in the right hind flank with the various tumor cell suspensions in HBSS containing 10% FBS: A431 human epidermoid carcinoma (4×10^6 cells/mouse), HCT116 human colorectal carcinoma (4×10^6 cells/mouse) and A375 human skin melanoma (2×10^6 cells/mouse).
The A431 epidermoid carcinoma cell line was chosen due to its ability to secrete VEGF in culture and its dependency on VEGF for angiogenesis and growth in vivo (Viloria-Petit A, Crombet T, Jothy S, et al. (2001) Cancer Res 61: 5090-5101). The HCT116 colon carcinoma cell line is dependent on the expression of VEGF to form tumors in nude mice (Okada F, Rak J, St. Croix B, et al. (1998) Proc Natl Acad Sci USA 95: 3609-3614). […]
In the A375 model, Compound 50 was administered at 100 mg/kg, qd. Treatment ended after 28 days, then tumor growth delay was analyzed to day 60.
(§2) The tumors were allowed to establish growth for 10 to 14 days. Tumor size was measured every 3 days. […]
(§3) Tumor measurements and body weights were recorded individually (2×/week) during the treatment period of the experiment. Tumors were measured using a digital caliper. Data was recorded/calculated using Study Director software (StudyLog Systems, Inc.) and graphs were created in GraphPad Prizm.
(§4) The volume of each tumor in an animal was calculated according to the formula: (D×d^2)/2, where the diameters were determined from two orthogonal measurements on each tumor. The mean tumor volume was determined by averaging all tumor volumes in each group. The mean body weight was determined by averaging all body weights in each group.
The standard deviation was calculated according to the formula (where x was the tumor volume): [Σx^2−((Σx)2/n)]/n−1 […]

[3] = system: A431 human epidermoid carcinoma; assay: In vivo inhibition of tumor growth, A431 model; parameters: species or system athymic nude mice; details: 10 mg/kg daily, oral
Description: as §1
Mice were implanted subcutaneously in the right hind flank with the various tumor cell suspensions in HBSS containing 10% FBS: A431 human epidermoid carcinoma (4×10^6 cells/mouse), HCT116 human colorectal carcinoma (4×10^6 cells/mouse) and A375 human skin melanoma (2×10^6 cells/mouse). […]
as §2, §3
The volume of each tumor in an animal was calculated according to the formula: (D×d^2)/2, where the diameters were determined from two orthogonal measurements on each tumor. The mean tumor volume was determined by averaging all tumor volumes in each group. The mean body weight was determined by averaging all body weights in each group. […]

[4] = system: Human Umbilical Vein Endothelial Cells (HUVEC); assay: VEGF Mediated Cell Migration Assay; format: cell-based; details: VEGF 10 ng/mL, VEGF control = 100%
[5] = In vivo tumor xenograft models overall (tolerability, body weight, plasma levels)
Procedure: as §1, §3, §4

[6] = 100 mg/kg daily, 24-28 days of treatment
[7] = A431 and HCT116 models, continuous administration for 24 days

For CCNC(=O)Nc1ccc(Oc2ncnc(N)c2/C=N/OC)cc1Cl [Cpd 50, 1-{4-[6-amino-5-(methoxyimino-methyl)-pyrimidin-4-yloxy]-2-chloro-phenyl}-3-ethyl-urea], the “% Inhibition of blood vessel growth compared to the vehicle group” value ([1]; 10 mg/Kg daily oral) was 15% and 15 ± 2%, the “% Inhibition of blood vessel growth compared to the vehicle group” value ([1]; 100 mg/Kg daily oral) was 83% and 83 ± 6% and the “tumor growth delay maintained after completion of treatment” value ([2]; 100 mg/kg qd for 28 days) was 3 weeks. The “body weights of treated animals” value ([2]; 28 days of continuous dosing, 100 mg/kg) was “comparable to the control group”, the inhibition of growth ([2]; daily doses of 100 mg/kg, oral, 28 days) was 90% and the “inhibition of tumor growth” value [3] was < 50%. For the same compound, the “% Stimulation of cell migration” value ([4]; 50 nM) was 82%, the “% Stimulation of cell migration” value ([4]; 100 nM) was 60% and the “% Stimulation of cell migration” value ([4]; 500 nM) was 59%. For the same compound, the “% Stimulation of cell migration” value ([4]; 1 μM) was 34.5%, the “inhibition in tumor xenograft models” value ([5]; 10 mg/kg qd) was 28-48% and the plasma levels ([5]; 100 mg/kg daily dosing schedule, oral, mice) was 20 µM. The body weight [5, 6] was “no reduction of body weight”, the tolerability [5, 6] was “well-tolerated” and the treatment-related deaths [5, 6] was “no treatment-related deaths”. For the same compound, the body weights [5, 7] was “comparable with control animals” and the tolerability [5, 7] was “well tolerated”.
